In US10947271B2, “Antibacterial agents” (THE UNIVERSITY OF QUEENSLAND, priority 2014, dated 2021):

Assays:
Assay type in all cases: cell-based
Details in all cases: 24 h incubation, visual reading
[1] = test system: Staphylococcus aureus MRSA ATCC 43300; test: MIC assay, S. aureus MRSA ATCC 43300
In short: (§1)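 MHB broth microdilution, twofold series, compounds 8–0.003 μg/ml; mid-log inoculum 5×10e5 CFU/mL; 37° C, 24 h; MIC read visually as lowest concentration without growth.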

[2] = test system: Streptococcus pneumoniae MDR ATCC 700677; test: MIC assay, S. pneumoniae MDR ATCC 700677
In short: as §1

[3] = test system: Enterococcus faecium MDR Van A ATCC 51559; test: MIC assay, E. faecium MDR Van A ATCC 51559
In short: as §1

SMILES | Minimum Inhibitory Concentration (MIC) Staph. aureus ATCC43300 [1] | Minimum Inhibitory Concentration (MIC) S. pneumoniae ATCC 700677 [2] | Minimum Inhibitory Concentration (MIC) E. faecium ATCC51559 [3]
CNC(=O)[C@H](CCCCNC(=O)[C@H]1NC(=O)[C@H]2NC(=O)[C@H](NC(=O)[C@@H]3NC(=O)[C@H](CC(N)=O)NC(=O)[C@H](NC(=O)[C@@H](CC(C)C)NC)[C@H](O)c4ccc(c(Cl)c4)Oc4cc3cc(c4O[C@@H]3O[C@H](CO)[C@@H](O)[C@H](O)[C@H]3O)Oc3ccc(cc3Cl)[C@H]2O)c2ccc(O)c(c2)-c2c(O)cc(O)cc21)NC(=O)[C@H](CCCCN)NC(=O)[C@H](CCCCN)NC(=O)[C@H](CCCCNC(=O)CCCOc1ccccc1)NC(=O)CCCOc1ccccc1 [MCC_000604] | xx (xx = 1-4) | xx (xx = 1-4) | x (x = >4)
CCCCCCCCCCCCCC(=O)N[C@@H](CCCCN)C(=O)N[C@@H](CCCCNC(=O)[C@H]1NC(=O)[C@H]2NC(=O)[C@H](NC(=O)[C@@H]3NC(=O)[C@H](CC(N)=O)NC(=O)[C@H](NC(=O)[C@@H](CC(C)C)NC)[C@H](O)c4ccc(c(Cl)c4)Oc4cc3cc(c4O[C@@H]3O[C@H](CO)[C@@H](O)[C@H](O)[C@H]3O[C@H]3C[C@](C)(N)[C@H](O)[C@H](C)O3)Oc3ccc(cc3Cl)[C@H]2O)c2ccc(O)c(c2)-c2c(O)cc(O)cc21)C(=O)NC [MCC_000627] | xxxxx (xxxxx = <0.01) | xxxxx (xxxxx = <0.01) | xx (xx = 1-4)
CCCCCCCCCCCCCC(=O)NC(CCCCN)C(=O)NC(CCCCN)C(=O)NC(CCCCN)C(=O)NC(CCCCNC(=O)C1NC(=O)C2NC(=O)C(NC(=O)C3NC(=O)C(CC(N)=O)NC(=O)C(NC(=O)C(CC(C)C)NC)C(O)c4ccc(c(Cl)c4)Oc4cc3cc(c4OC3OC(CO)C(O)C(O)C3OC3CC(C)(N)C(O)C(C)O3)Oc3ccc(cc3Cl)C2O)c2ccc(O)c(c2)-c2c(O)cc(O)cc21)C(=O)OC (stereo not drawn) [MCC_000635] | xxxxx (xxxxx = <0.01) | xxxxx (xxxxx = <0.01) | xxxxx (xxxxx = <0.01)
CNC(=O)[C@H](CCCCNC(=O)[C@H]1NC(=O)[C@H]2NC(=O)[C@H](NC(=O)[C@@H]3NC(=O)[C@H](CC(N)=O)NC(=O)[C@H](NC(=O)[C@@H](CC(C)C)NC)[C@H](O)c4ccc(c(Cl)c4)Oc4cc3cc(c4O[C@@H]3O[C@H](CO)[C@@H](O)[C@H](O)[C@H]3O)Oc3ccc(cc3Cl)[C@H]2O)c2ccc(O)c(c2)-c2c(O)cc(O)cc21)NC(=O)[C@H](CCCCN)NC(=O)[C@H](CCCCN)NC(=O)[C@H](CCCCNC(=O)c1ccc(Oc2ccc(F)cc2)cc1)NC(=O)c1ccc(Oc2ccc(F)cc2)cc1 [MCC_000651] | xxxxx (xxxxx = <0.01) | xxxx (xxxx = 0.01-<0.1) | xx (xx = 1-4)
CNC(=O)[C@H](CCCCNC(=O)[C@H]1NC(=O)[C@H]2NC(=O)[C@H](NC(=O)[C@@H]3NC(=O)[C@H](CC(N)=O)NC(=O)[C@H](NC(=O)[C@@H](CC(C)C)NC)[C@H](O)c4ccc(c(Cl)c4)Oc4cc3cc(c4O[C@@H]3O[C@H](CO)[C@@H](O)[C@H](O)[C@H]3O[C@H]3C[C@](C)(N)[C@H](O)[C@H](C)O3)Oc3ccc(cc3Cl)[C@H]2O)c2ccc(O)c(c2)-c2c(O)cc(O)cc21)NC(=O)[C@H](CCCCN)NC(=O)[C@H](CCCCN)NC(=O)[C@H](CCCCNC(=O)Cc1ccc(-c2ccccc2)cc1)NC(=O)Cc1ccc(-c2ccccc2)cc1 [MCC_000652] | xxxxx (xxxxx = <0.01) | xxxxx (xxxxx = <0.01) | xxx (xxx = 0.1-<1)
CNC(=O)[C@H](CCCCNC(=O)[C@H]1NC(=O)[C@H]2NC(=O)[C@H](NC(=O)[C@@H]3NC(=O)[C@H](CC(N)=O)NC(=O)[C@H](NC(=O)[C@@H](CC(C)C)NC)[C@H](O)c4ccc(c(Cl)c4)Oc4cc3cc(c4O[C@@H]3O[C@H](CO)[C@@H](O)[C@H](O)[C@H]3O)Oc3ccc(cc3Cl)[C@H]2O)c2ccc(O)c(c2)-c2c(O)cc(O)cc21)NC(=O)[C@H](CCCCN)NC(=O)[C@H](CCCCN)NC(=O)[C@H](CCCCNC(=O)Cc1ccc(-c2ccccc2)cc1)NC(=O)Cc1ccc(-c2ccccc2)cc1 [MCC_000653] | xxxx (xxxx = 0.01-<0.1) | xxxx (xxxx = 0.01-<0.1) | xx (xx = 1-4)

Other lines, results leading:

Minimum Inhibitory Concentration (MIC) Staph. aureus ATCC43300 [1] | Minimum Inhibitory Concentration (MIC) S. pneumoniae ATCC 700677 [2] | Minimum Inhibitory Concentration (MIC) E. faecium ATCC51559 [3] | SMILES
xxxxx (xxxxx = <0.01) | xxxxx (xxxxx = <0.01) | xx (xx = 1-4) | CNC(=O)C(CCCCNC(=O)C1NC(=O)C2NC(=O)C(NC(=O)C3NC(=O)C(CC(N)=O)NC(=O)C(NC(=O)C(CC(C)C)NC)C(O)c4ccc(c(Cl)c4)Oc4cc3cc(c4OC3OC(CO)C(O)C(O)C3OC3CC(C)(N)C(O)C(C)O3)Oc3ccc(cc3Cl)C2O)c2ccc(O)c(c2)-c2c(O)cc(O)cc21)NC(=O)C(CCCCN)NC(=O)C(CCCCNC(=O)c1ccc(OCc2ccccc2)cc1)NC(=O)c1ccc(OCc2ccccc2)cc1 (stereo not drawn) [MCC_000519]
xxx (xxx = 0.1-<1) | xxx (xxx = 0.1-<1) | x (x = >4) | CNC(=O)[C@H](CCCCNC(=O)[C@H]1NC(=O)[C@H]2NC(=O)[C@H](NC(=O)[C@@H]3NC(=O)[C@H](CC(N)=O)NC(=O)[C@H](NC(=O)[C@@H](CC(C)C)NC)[C@H](O)c4ccc(c(Cl)c4)Oc4cc3cc(c4O[C@@H]3O[C@H](CO)[C@@H](O)[C@H](O)[C@H]3O[C@H]3C[C@](C)(N)[C@H](O)[C@H](C)O3)Oc3ccc(cc3Cl)[C@H]2O)c2ccc(O)c(c2)-c2c(O)cc(O)cc21)NC(=O)[C@H](CCCCN)NC(=O)[C@H](CCCCN)NC(=O)CNC(=O)c1ccc(Oc2ccccc2)cc1 [MCC_000647]
xxxxx (xxxxx = <0.01) | xxxx (xxxx = 0.01-<0.1) | xx (xx = 1-4) | CCCCCCCC(=O)NCCCC[C@H](NC(=O)CCCCCCC)C(=O)N[C@@H](CCCCN)C(=O)N[C@@H](CCCCN)C(=O)N[C@@H](CCCCNC(=O)[C@H]1NC(=O)[C@H]2NC(=O)[C@H](NC(=O)[C@@H]3NC(=O)[C@H](CC(N)=O)NC(=O)[C@H](NC(=O)[C@@H](CC(C)C)NC)[C@H](O)c4ccc(c(Cl)c4)Oc4cc3cc(c4O[C@@H]3O[C@H](CO)[C@@H](O)[C@H](O)[C@H]3O[C@H]3C[C@](C)(N)[C@H](O)[C@H](C)O3)Oc3ccc(cc3Cl)[C@H]2O)c2ccc(O)c(c2)-c2c(O)cc(O)cc21)C(=O)NC [MCC_000654]
xx (xx = 1-4) | xx (xx = 1-4) | x (x = >4) | CNC(=O)[C@H](CCCCNC(=O)[C@H]1NC(=O)[C@H]2NC(=O)[C@H](NC(=O)[C@@H]3NC(=O)[C@H](CC(N)=O)NC(=O)[C@H](NC(=O)[C@@H](CC(C)C)NC)[C@H](O)c4ccc(c(Cl)c4)Oc4cc3cc(c4O[C@@H]3O[C@H](CO)[C@@H](O)[C@H](O)[C@H]3O[C@H]3C[C@](C)(N)[C@H](O)[C@H](C)O3)Oc3ccc(cc3Cl)[C@H]2O)c2ccc(O)c(c2)-c2c(O)cc(O)cc21)NC(=O)[C@H](CCCCN)NC(=O)[C@H](CCCCN)NS(=O)(=O)c1ccc(C)cc1 [MCC_000764]
